Source: patent US20210323918A1, “COMPOSITIONS AND METHODS FOR SUPPRESSING AND/OR TREATING A GROWTH RELATED DISEASE AND/OR A CLINICAL CONDITION THEREOF” (CK Biotech Inc., priority 2018, published 2021)

System: C28/I2 cells
Test: Protein and mRNA expression in C28/I2 chondrocyte cells
Assay type: cell-based, human
Description: Cell culture and reagents. The mouse chondrogenic cell line, ATDC5, was obtained from the RIKEN Cell Batik. The human juvenile costal chondrocyte cell line, C28/I2, was provided by Dr. W. U. Kim (Catholic University, Korea). HEK293-TOP cells (HEK293 cells containing the chromosomally incorporated TOPFlash gene) were provided by Dr. S. Oh (Kuk Min University, Korea). ATDCS cells were maintained in DMEM/F12 (1:1) (Gibco, Grand Island, N.Y.) supplemented with 5% FBS (Gibco). To induce hypertrophic differentiation, ATDC5 cells were incubated with insulin-transferrin-sodium selenite (ITS) supplement (Gibco) in three-dimensional alginate beads for 3 days, as previously described. See e.g., Kawasaki Y. et al. (2008), Phosphorylation of GSK-3beta by cGMP-dependent protein kinase II promotes hypertrophic differentiation of murine chondrocytes. J CLIN INVEST 118: 2506-2515. C28/I2 and HEK293-TOP cells were maintained in DMEM (Gibco) containing 10% FBS. All chemicals were dissolved in dimethyl sulfoxide (DMSO; Sigma-Aldrich, St Louis, Mo.) for the in vitro studies. For E2 (17β-estradiol; Sigma-Aldrich) treatment, cells were cultured in phenol red-free DMEM/F12 with 5% charcoal-stripped FBS for 24 hours followed by serum-free medium for 24 hours before the experiment. The PTD-DBMP was synthesized by Peptide 2.0 Inc (Chantilly, Va.).
Immunocytochemistry. ATDCS or C28/I2 cells were seeded on glass coverslip in 12-well culture plates. The cells were washed with PBS and fixed with 4% PFA at room temperature for 15 minutes. After permeabilization with 0.1% triton-X-100 for 15 minutes and blocking with 5% BSA for 1 hour, the cells were incubated with primary antibodies specific for β-catenin (1:100) or CXXC5 l (1:200) at 4° C. overnight. […]
Immunoblot analyses. […] Immunoblot bands were analyzed using Multi-Gauge V3.0 software (Fujifilm). Points of interest (POIs) from immunoblot bands were marked and quantified using densitometry, and the background signals were subtracted from respective immunoblot signals. […]
Reverse transcription and quantitative real-time PCR. […]

Compound	mRNA levels of chondrogenic markers (1 μM, 3 days, alginate beads, FIG. 11C)	expression of CXXC5 (100 nM, 0-72 hours, FIG. 2A)	β-catenin level (100 nM, following 24 hours)
CO/N=C1/C(=C2/C(=O)Nc3cc(Cl)c(Cl)cc32)Nc2ccccc21 [KY19382, 5,6-dichloroindirubin-3′-methoxime]	upregulated	–	–
17β-estradiol [Compound E2]	–	induced expression of CXXC5 in a time-dependent manner	reduced
